In the supplement of paper PMC10307832:

Columns and labels:
Assay in all cases: relative viability (nuclei count vs DMSO), 5 days (fraction); higher = more cells survive
[1] = compound: C[C@@H](C(=O)N[C@@H](C1CCCCC1)C(=O)N2CCC[C@H]2C(=O)N[C@@H]3[C@@H](CC4=CC=CC=C34)OCC#CC#CCO[C@@H]5CC6=CC=CC=C6[C@@H]5NC(=O)[C@@H]7CCCN7C(=O)[C@H](C8CCCCC8)NC(=O)[C@H](C)NC)NC [AZD5582] + Cc1nc(Nc2ncc(C(=O)Nc3c(C)cccc3Cl)s2)cc(N2CCN(CCO)CC2)n1 [Dasatinib] (partner 0.075 µM)
Method in brief: (§1)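 Relative viability was taken as the ratio of nuclei in treated wells to nuclei in vehicle wells. Lung cancer cell lines in 1536-well plates received compounds by pin tool one day after seeding, either one drug alone or a fixed anchor-drug dose plus five library-drug doses (not always all listed) in √10 steps. Nuclei were counted on 4× images after 5 days of treatment, and values are medians of duplicate plates.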

[2] = compound: Cn1nnc2c(C(N)=O)ncn2c1=O [Temozolomide] + CC(=O)Nc1cccc(-n2c(=O)n(C3CC3)c(=O)c3c(Nc4ccc(I)cc4F)n(C)c(=O)c(C)c32)c1 [Trametinib] (partner 0.02 µM)
Method in brief: as §1

[3] = compound: Cn1nnc2c(C(N)=O)ncn2c1=O [Temozolomide] + COc1cc2c(Oc3ccc(NC(=O)C4(C(=O)Nc5ccc(F)cc5)CC4)cc3F)ccnc2cc1OCCCN1CCOCC1 [Foretinib] (partner 0.25 µM)
Method in brief: as §1

[4] = compound: Cn1nnc2c(C(N)=O)ncn2c1=O [Temozolomide] + CS(=O)(=O)N1CCN(Cc2cc3nc(-c4cccc5[nH]ncc45)nc(N4CCOCC4)c3s2)CC1 [Pictilisib] (partner 1 µM)
Method in brief: as §1

LU99A showed a relative viability ([1]; first compound 0.001581 µM) of 0.443, a relative viability ([1]; first compound 0.005 µM) of 0.608 and a relative viability ([1]; first compound 0.01581 µM) of 0.537. The relative viability ([1]; first compound 0.05 µM) was 0.483, the relative viability ([2]; first compound 0.2 µM) was 0.555 and the relative viability ([2]; first compound 0.6325 µM) was 0.522. The relative viability ([2]; first compound 2 µM) was 0.6, the relative viability ([2]; first compound 6.325 µM) was 0.555 and the relative viability ([2]; first compound 20 µM) was 0.61. The relative viability ([3]; first compound 0.2 µM) was 0.874, the relative viability ([3]; first compound 0.6325 µM) was 0.851 and the relative viability ([3]; first compound 2 µM) was 0.832. It also gave a relative viability ([3]; first compound 6.325 µM) of 0.784, a relative viability ([3]; first compound 20 µM) of 0.73 and a relative viability ([4]; first compound 0.2 µM) of 0.325. For the same cell line, the relative viability ([4]; first compound 0.6325 µM) was 0.351, the relative viability ([4]; first compound 2 µM) was 0.324 and the relative viability ([4]; first compound 6.325 µM) was 0.343. It also gave a relative viability ([4]; first compound 20 µM) of 0.335.

In the case of LXF-289, the relative viability ([1]; first compound 0.001581 µM) is reported as 0.228, the relative viability ([1]; first compound 0.005 µM) is reported as 0.236 and the relative viability ([1]; first compound 0.01581 µM) is reported as 0.154. The relative viability ([1]; first compound 0.05 µM) was 0.13, the relative viability ([2]; first compound 0.2 µM) was 0.693 and the relative viability ([2]; first compound 0.6325 µM) was 0.693. It also gave a relative viability ([2]; first compound 2 µM) of 0.683, a relative viability ([2]; first compound 6.325 µM) of 0.653 and a relative viability ([2]; first compound 20 µM) of 0.667. For the same cell line, the relative viability ([3]; first compound 0.2 µM) was 0.978, the relative viability ([3]; first compound 0.6325 µM) was 0.998 and the relative viability ([3]; first compound 2 µM) was 0.985. The relative viability ([3]; first compound 6.325 µM) was 0.964, the relative viability ([3]; first compound 20 µM) was 0.908 and the relative viability ([4]; first compound 0.2 µM) was 0.814. It also gave a relative viability ([4]; first compound 0.6325 µM) of 0.788, a relative viability ([4]; first compound 2 µM) of 0.823 and a relative viability ([4]; first compound 6.325 µM) of 0.737. The relative viability ([4]; first compound 20 µM) was 0.655.

In the case of NCI-H23, the relative viability ([1]; first compound 0.001581 µM) is reported as 0.605, the relative viability ([1]; first compound 0.005 µM) is reported as 0.644 and the relative viability ([1]; first compound 0.01581 µM) is reported as 0.539. For the same cell line, the relative viability ([1]; first compound 0.05 µM) was 0.269, the relative viability ([2]; first compound 0.2 µM) was 0.353 and the relative viability ([2]; first compound 0.6325 µM) was 0.348. For the same cell line, the relative viability ([2]; first compound 2 µM) was 0.427, the relative viability ([2]; first compound 6.325 µM) was 0.381 and the relative viability ([2]; first compound 20 µM) was 0.358. It also gave a relative viability ([3]; first compound 0.2 µM) of 1.02, a relative viability ([3]; first compound 0.6325 µM) of 0.979 and a relative viability ([3]; first compound 2 µM) of 0.97. For the same cell line, the relative viability ([3]; first compound 6.325 µM) was 0.778, the relative viability ([3]; first compound 20 µM) was 1.05 and the relative viability ([4]; first compound 0.2 µM) was 0.563. The relative viability ([4]; first compound 0.6325 µM) was 0.508, the relative viability ([4]; first compound 2 µM) was 0.517 and the relative viability ([4]; first compound 6.325 µM) was 0.401. For the same cell line, the relative viability ([4]; first compound 20 µM) was 0.454.

For NCI-H322M, the relative viability ([1]; first compound 0.001581 µM) was 0.314, the relative viability ([1]; first compound 0.005 µM) was 0.285 and the relative viability ([1]; first compound 0.05 µM) was 0.269. For the same cell line, the relative viability ([2]; first compound 0.2 µM) was 0.446, the relative viability ([2]; first compound 0.6325 µM) was 0.526 and the relative viability ([2]; first compound 2 µM) was 0.569. The relative viability ([2]; first compound 6.325 µM) was 0.532, the relative viability ([2]; first compound 20 µM) was 0.451 and the relative viability ([3]; first compound 0.6325 µM) was 0.937. It also gave a relative viability ([3]; first compound 2 µM) of 1.12, a relative viability ([3]; first compound 6.325 µM) of 0.982 and a relative viability ([3]; first compound 20 µM) of 0.864. For the same cell line, the relative viability ([4]; first compound 0.6325 µM) was 0.555, the relative viability ([4]; first compound 2 µM) was 0.545 and the relative viability ([4]; first compound 6.325 µM) was 0.483. For the same cell line, the relative viability ([4]; first compound 20 µM) was 0.363.

Work on NCI-H522 yielded a relative viability ([1]; first compound 0.001581 µM) of 0.935, a relative viability ([1]; first compound 0.005 µM) of 0.876 and a relative viability ([1]; first compound 0.01581 µM) of 0.846. The relative viability ([1]; first compound 0.05 µM) was 1.45, the relative viability ([2]; first compound 0.2 µM) was 0.654 and the relative viability ([2]; first compound 0.6325 µM) was 0.724. The relative viability ([2]; first compound 2 µM) was 0.954, the relative viability ([2]; first compound 6.325 µM) was 0.691 and the relative viability ([2]; first compound 20 µM) was 0.671.

For NCI-H1299, the relative viability ([3]; first compound 0.2 µM) was 1.15, the relative viability ([3]; first compound 0.6325 µM) was 1.12 and the relative viability ([3]; first compound 2 µM) was 1.09. It also gave a relative viability ([3]; first compound 6.325 µM) of 1.1, a relative viability ([3]; first compound 20 µM) of 1.12 and a relative viability ([4]; first compound 0.2 µM) of 0.823. It also gave a relative viability ([4]; first compound 0.6325 µM) of 0.8, a relative viability ([4]; first compound 2 µM) of 0.744 and a relative viability ([4]; first compound 6.325 µM) of 0.784. For the same cell line, the relative viability ([4]; first compound 20 µM) was 0.847.

Cell Line NCI-H1563 has a relative viability ([1]; first compound 0.001581 µM) of 0.412, a relative viability ([1]; first compound 0.005 µM) of 0.456 and a relative viability ([1]; first compound 0.01581 µM) of 0.447. For the same cell line, the relative viability ([1]; first compound 0.05 µM) was 0.461, the relative viability ([3]; first compound 0.2 µM) was 0.762 and the relative viability ([3]; first compound 0.6325 µM) was 0.967. It also gave a relative viability ([3]; first compound 2 µM) of 0.886, a relative viability ([3]; first compound 6.325 µM) of 0.915 and a relative viability ([3]; first compound 20 µM) of 0.927. For the same cell line, the relative viability ([4]; first compound 0.2 µM) was 0.654, the relative viability ([4]; first compound 0.6325 µM) was 0.619 and the relative viability ([4]; first compound 2 µM) was 0.642. It also gave a relative viability ([4]; first compound 6.325 µM) of 0.609 and a relative viability ([4]; first compound 20 µM) of 0.664.

Cell Line NCI-H1623 has a relative viability ([1]; first compound 0.001581 µM) of 0.514, a relative viability ([1]; first compound 0.005 µM) of 0.582 and a relative viability ([1]; first compound 0.01581 µM) of 0.559. It also gave a relative viability ([1]; first compound 0.05 µM) of 0.433, a relative viability ([3]; first compound 0.6325 µM) of 0.854 and a relative viability ([3]; first compound 2 µM) of 0.827. The relative viability ([3]; first compound 6.325 µM) was 0.822 and the relative viability ([3]; first compound 20 µM) was 0.519.

In the case of NCI-H1648, the relative viability ([2]; first compound 0.6325 µM) is reported as 0.477, the relative viability ([2]; first compound 2 µM) is reported as 0.454 and the relative viability ([2]; first compound 6.325 µM) is reported as 0.545. It also gave a relative viability ([2]; first compound 20 µM) of 0.307.

Cell Line NCI-H1792 has a relative viability ([1]; first compound 0.001581 µM) of 0.861, a relative viability ([1]; first compound 0.005 µM) of 0.911 and a relative viability ([1]; first compound 0.01581 µM) of 0.819. It also gave a relative viability ([1]; first compound 0.05 µM) of 1.03, a relative viability ([2]; first compound 0.2 µM) of 0.389 and a relative viability ([2]; first compound 0.6325 µM) of 0.441. For the same cell line, the relative viability ([2]; first compound 2 µM) was 0.471, the relative viability ([2]; first compound 6.325 µM) was 0.317 and the relative viability ([2]; first compound 20 µM) was 0.517. It also gave a relative viability ([4]; first compound 0.2 µM) of 0.199, a relative viability ([4]; first compound 0.6325 µM) of 0.304 and a relative viability ([4]; first compound 2 µM) of 0.241. For the same cell line, the relative viability ([4]; first compound 6.325 µM) was 0.314 and the relative viability ([4]; first compound 20 µM) was 0.256.

Cell Line NCI-H2342 has a relative viability ([1]; first compound 0.001581 µM) of 0.316, a relative viability ([1]; first compound 0.005 µM) of 0.315 and a relative viability ([1]; first compound 0.01581 µM) of 0.27. For the same cell line, the relative viability ([1]; first compound 0.05 µM) was 0.319, the relative viability ([2]; first compound 0.2 µM) was 0.638 and the relative viability ([2]; first compound 0.6325 µM) was 0.848. For the same cell line, the relative viability ([2]; first compound 2 µM) was 0.757, the relative viability ([2]; first compound 6.325 µM) was 0.799 and the relative viability ([2]; first compound 20 µM) was 0.818. It also gave a relative viability ([3]; first compound 0.2 µM) of 0.793, a relative viability ([3]; first compound 0.6325 µM) of 1 and a relative viability ([3]; first compound 2 µM) of 1.04. It also gave a relative viability ([3]; first compound 6.325 µM) of 1.02 and a relative viability ([3]; first compound 20 µM) of 0.886.

SW 900 gave a relative viability ([1]; first compound 0.001581 µM) of 0.482, a relative viability ([1]; first compound 0.005 µM) of 0.424 and a relative viability ([1]; first compound 0.01581 µM) of 0.393. For the same cell line, the relative viability ([1]; first compound 0.05 µM) was 0.653, the relative viability ([2]; first compound 0.2 µM) was 0.728 and the relative viability ([2]; first compound 0.6325 µM) was 0.783. For the same cell line, the relative viability ([2]; first compound 2 µM) was 0.966, the relative viability ([2]; first compound 6.325 µM) was 1 and the relative viability ([2]; first compound 20 µM) was 0.59. It also gave a relative viability ([3]; first compound 0.2 µM) of 0.924, a relative viability ([3]; first compound 0.6325 µM) of 1.2 and a relative viability ([3]; first compound 2 µM) of 0.955. The relative viability ([3]; first compound 6.325 µM) was 0.732 and the relative viability ([3]; first compound 20 µM) was 1.25.
